The target of data set [1] is full-length SARS-CoV-2 hemagglutinin (HA)-Nsp3 (Severe acute respiratory syndrome coronavirus 2, UniProt P0DTD1). The data set can be described thus: biochemical.
In data set [2] the test system is SARS-CoV-2 Delta (B.1.617.2). The data set can be described thus: CPE assay, neutral red, Vero E6 cells with 2 μM CP-100356, Delta. The data set is classed as cell-based. Conditions: Severe acute respiratory syndrome coronavirus 2, Vero C1008.
Another data set has as its system SARS-CoV-2 USA-WA1/2020. Nature of the data set: microbe, parasite or virus in culture. Type of data set: cell-based. The note with it: for Virus Titer: USA-WA1/2020.
Data set [3] deals with SARS-CoV-2 Delta (B.1.617.2). Nature of the data set: microbe, parasite or virus in culture. The data set is classed as cell-based. The note with it: Severe acute respiratory syndrome coronavirus 2; Delta (B1.617.2), Caco-2.
The subject of the next data set is Vero E6 cells. The note with it: African green monkey, 48 h.
The nature of a further data set: in vitro. The note with it: African green monkey.

Molecules are shown by their SMILES. Where two headings read alike, the source gives them in different places. Some results are limits rather than exact numbers.

In general, inhibition refers to the relative decrease from the control value, in per cent. Broadly, the EC50 is the midpoint of the concentration-response curve. Higher therefore signals weaker potency. As a reminder, the EC90 is the point of the concentration-response curve where the effect stands at 90%. A high value points to weaker potency. The viability is a read-out of living cells in per cent, often relative to untreated cells.

As to `COC(=O)/C=C/C(=O)NNC(=O)CCc1ccccc1C(=O)N[C@H](C)c1cccc2ccccc12` [Compound 7, methyl(R,E)-4-(2-(3-(2-((1-(naphthalen-1 yl)ethyl)carbamoyl)phenyl)propanoyl)hydrazineyl)-4-oxobut-2-enoate], the inhibition at 0.003 µM in data set [1] (0.003 uM, read-out: Percent Nsp3 inhibition) was -4%. The figures for the “Percent Nsp3 inhibition” value in data set [1] (1.852 uM) and in data set [1] (50.000 uM) were 84.0% and 89.9%, respectively. Further, in data set [1] (1.852 uM, read-out: Percent Nsp3 inhibition), the inhibition at 1.852 µM is 83.9%. The inhibition at 50 µM in data set [1] (50.000 uM, read-out: Percent Nsp3 inhibition) amounted to 90.7%. A half-maximal effect in data set [2] (EC50) was put at 0.29 µM. Besides, the EC90 in the data set on SARS-CoV-2 USA-WA1/2020 (Severe acute respiratory syndrome coronavirus 2, Caco-2) is 0.26 µM; in data set [3], > 10 µM. Also, the “Virus Titer” value is reported as 4.0 CCID50/mL (Log10) in the data set with SARS-CoV-2 USA-WA1/2020 (0.01 µM), 1.7 CCID50/mL (Log10) in the data set with SARS-CoV-2 USA-WA1/2020 (0.1 µM), <0.7 CCID50/mL (Log10) with SARS-CoV-2 USA-WA1/2020 (1 µM) and <0.7 CCID50/mL (Log10) in the data set with SARS-CoV-2 USA-WA1/2020 (10 µM). The CC50 in the data set with Caco-2 cells (Caco-2, Delta rows) is > 10 µM; in the data set with Caco-2 cells (Caco-2, Omicron rows) it was > 10 µM.

Regarding `C[C@@H](NC(=O)c1ccccc1CCC(=O)NNC(=O)CCl)c1cccc2ccccc12` [Compound 9, (R)-2-(3-(2-(2-chloroacetyl)hydrazineyl)-3-oxopropyl)-N-(1-(naphthalen-1-yl)ethyl)benzamide], the “cytotoxicity, %cell viability” value is recorded as 100.620% in the data set on Vero E6 cells (2.08 µM), 103.333% with Vero E6 cells (8.33 µM) and 94.042% in the data set with Vero E6 cells (16.65 µM). Further, the CC50 at 48 h in “in vitro” (CC50) is > 30 µM. For the same molecule, the viability at 48 h, 2.08 µM in “in vitro” (cytotoxicity, %cell viability) stood at 102%. Moreover, the viability at 48 h, 8.33 µM in the data set “in vitro” (cytotoxicity, %cell viability) amounted to 99.1%. Further, the viability at 48 h, 16.65 µM in “in vitro” (cytotoxicity, %cell viability) was 91.4%.

The values above are taken from article PMC10044120, “Potent and selective covalent inhibition of the papain-like protease from SARS-CoV-2” (Nature Communications, 2023).
